Results: PubChem BioAssay (NCI)
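48-hour exposure; five concentrations; linearly interpolated endpoints. The concentration for full growth arrest is given as TGI.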

Key:
Assay in all cases: growth of human tumour cells (NCI), 48 h
786-0 renal = tested on: 786-0 renal
A498 renal = tested on: A498 renal
A549 NSCLC = tested on: A549 NSCLC
ACHN renal = tested on: ACHN renal
CAKI-1 renal = tested on: CAKI-1 renal
CCRF-CEM leukemia = tested on: CCRF-CEM leukemia
COLO 205 colon = tested on: COLO 205 colon
DLD-1 colon = tested on: DLD-1 colon
DMS 114 small cell lung = tested on: DMS 114 small cell lung
DMS 273 small cell lung = tested on: DMS 273 small cell lung
EKVX NSCLC = tested on: EKVX NSCLC
HCC-2998 colon = tested on: HCC-2998 colon
HCT-116 colon = tested on: HCT-116 colon
HCT-15 colon = tested on: HCT-15 colon
HL-60(TB) leukemia = tested on: HL-60(TB) leukemia
HOP-18 NSCLC = tested on: HOP-18 NSCLC
HOP-62 NSCLC = tested on: HOP-62 NSCLC
HOP-92 NSCLC = tested on: HOP-92 NSCLC
HT29 colon = tested on: HT29 colon
IGROV1 ovarian = tested on: IGROV1 ovarian
K-562 leukemia = tested on: K-562 leukemia
KM12 colon = tested on: KM12 colon
KM20L2 colon = tested on: KM20L2 colon
LOX IMVI melanoma = tested on: LOX IMVI melanoma
LXFL 529 NSCLC = tested on: LXFL 529 NSCLC
M14 melanoma = tested on: M14 melanoma
M19-MEL melanoma = tested on: M19-MEL melanoma
MALME-3M melanoma = tested on: MALME-3M melanoma
MOLT-4 leukemia = tested on: MOLT-4 leukemia
NCI-H226 lung = tested on: NCI-H226 lung
NCI-H23 lung = tested on: NCI-H23 lung
NCI-H460 lung = tested on: NCI-H460 lung
NCI-H522 lung = tested on: NCI-H522 lung
OVCAR-3 ovarian = tested on: OVCAR-3 ovarian
OVCAR-4 ovarian = tested on: OVCAR-4 ovarian
OVCAR-5 ovarian = tested on: OVCAR-5 ovarian
OVCAR-8 ovarian = tested on: OVCAR-8 ovarian
RPMI-8226 leukemia = tested on: RPMI-8226 leukemia
RXF 393 renal = tested on: RXF 393 renal
RXF-631 renal = tested on: RXF-631 renal
SF-268 CNS = tested on: SF-268 CNS
SF-295 CNS = tested on: SF-295 CNS
SF-539 CNS = tested on: SF-539 CNS
SK-MEL-2 melanoma = tested on: SK-MEL-2 melanoma
SK-MEL-28 melanoma = tested on: SK-MEL-28 melanoma
SK-MEL-5 melanoma = tested on: SK-MEL-5 melanoma
SK-OV-3 ovarian = tested on: SK-OV-3 ovarian
SN12C renal = tested on: SN12C renal
SNB-19 CNS = tested on: SNB-19 CNS
SNB-75 CNS = tested on: SNB-75 CNS
SNB-78 CNS = tested on: SNB-78 CNS
SR leukemia = tested on: SR leukemia
SW-620 colon = tested on: SW-620 colon
TK-10 renal = tested on: TK-10 renal
U251 CNS = tested on: U251 CNS
UACC-257 melanoma = tested on: UACC-257 melanoma
UACC-62 melanoma = tested on: UACC-62 melanoma
UO-31 renal = tested on: UO-31 renal
XF 498 CNS = tested on: XF 498 CNS

`CCCCCCCCCCCCCCCC(=O)OCC1OC(n2cc(F)c(=O)[nH]c2=O)C(NC(=O)N(CCCl)N=O)C(O)C1O` (stereo not drawn) gave a TGI (786-0 renal) of 3.59 µM, a TGI (A498 renal) of 10.1 µM and a TGI (A549 NSCLC) of 7.14 µM. For the same compound, the TGI (ACHN renal) was 10.9 µM, the TGI (CAKI-1 renal) was 20.5 µM and the TGI (CCRF-CEM leukemia) was 6.58 µM. For the same compound, the TGI (COLO 205 colon) was 9.51 µM, the TGI (DLD-1 colon) was 12.5 µM and the TGI (DMS 114 small cell lung) was 5.02 µM. For the same compound, the TGI (DMS 273 small cell lung) was 4.3 µM, the TGI (EKVX NSCLC) was 7.18 µM and the TGI (HCC-2998 colon) was 11.3 µM. For the same compound, the TGI (HCT-116 colon) was 3.07 µM, the TGI (HCT-15 colon) was 15.1 µM and the TGI (HL-60(TB) leukemia) was 7.69 µM. It also gave a TGI (HOP-18 NSCLC) of 33.3 µM, a TGI (HOP-62 NSCLC) of 2.34 µM and a TGI (HOP-92 NSCLC) of 11.6 µM. The TGI (HT29 colon) was 14.1 µM, the TGI (IGROV1 ovarian) was 18.1 µM and the TGI (K-562 leukemia) was 25.6 µM. It also gave a TGI (KM12 colon) of 4.91 µM, a TGI (KM20L2 colon) of 18.4 µM and a TGI (LOX IMVI melanoma) of 2.24 µM. For the same compound, the TGI (LXFL 529 NSCLC) was 15.8 µM, the TGI (M14 melanoma) was 11.7 µM and the TGI (M19-MEL melanoma) was 9.91 µM. For the same compound, the TGI (MALME-3M melanoma) was 10.1 µM, the TGI (MOLT-4 leukemia) was > 39.9 µM and the TGI (NCI-H226 lung) was 24 µM. The TGI (NCI-H23 lung) was 2.84 µM, the TGI (NCI-H460 lung) was 4.81 µM and the TGI (NCI-H522 lung) was 10 µM. For the same compound, the TGI (OVCAR-3 ovarian) was 20.9 µM, the TGI (OVCAR-4 ovarian) was 20.5 µM and the TGI (OVCAR-5 ovarian) was 25.9 µM. The TGI (OVCAR-8 ovarian) was 9.69 µM, the TGI (RPMI-8226 leukemia) was 20.5 µM and the TGI (RXF 393 renal) was 8.37 µM. It also gave a TGI (RXF-631 renal) of 17.9 µM, a TGI (SF-268 CNS) of 2.83 µM and a TGI (SF-295 CNS) of 6.03 µM. For the same compound, the TGI (SF-539 CNS) was 1.36 µM, the TGI (SK-MEL-2 melanoma) was 3.3 µM and the TGI (SK-MEL-28 melanoma) was 7.96 µM. The TGI (SK-MEL-5 melanoma) was 9.8 µM, the TGI (SK-OV-3 ovarian) was 14.3 µM and the TGI (SN12C renal) was 15.6 µM. For the same compound, the TGI (SNB-19 CNS) was 8.71 µM, the TGI (SNB-75 CNS) was 1.56 µM and the TGI (SNB-78 CNS) was 18.1 µM. The TGI (SR leukemia) was 5.8 µM, the TGI (SW-620 colon) was 6.58 µM and the TGI (TK-10 renal) was 26.1 µM. The TGI (U251 CNS) was 3.74 µM, the TGI (UACC-257 melanoma) was 17.8 µM and the TGI (UACC-62 melanoma) was 1.17 µM. For the same compound, the TGI (UO-31 renal) was 29.6 µM.

`CC1(Cl)CC(C)(/C=C/Cl)C(Cl)CC1Cl` (stereo not drawn) showed a TGI (786-0 renal) of 29.1 µM, a TGI (A498 renal) of 34 µM and a TGI (A549 NSCLC) of 31.1 µM. For the same compound, the TGI (ACHN renal) was 27.8 µM, the TGI (CAKI-1 renal) was 33.3 µM and the TGI (CCRF-CEM leukemia) was 59 µM. The TGI (DLD-1 colon) was 35.7 µM, the TGI (EKVX NSCLC) was 26.4 µM and the TGI (HCC-2998 colon) was 32 µM. The TGI (HCT-116 colon) was 30 µM, the TGI (HCT-15 colon) was 27.3 µM and the TGI (HOP-62 NSCLC) was 34.7 µM. It also gave a TGI (HOP-92 NSCLC) of 16.8 µM, a TGI (HT29 colon) of 27.3 µM and a TGI (IGROV1 ovarian) of 30.4 µM. For the same compound, the TGI (K-562 leukemia) was 57 µM, the TGI (KM12 colon) was 31.3 µM and the TGI (KM20L2 colon) was 31.6 µM. It also gave a TGI (LXFL 529 NSCLC) of 28.3 µM, a TGI (M14 melanoma) of 31.2 µM and a TGI (M19-MEL melanoma) of 59.1 µM. For the same compound, the TGI (MALME-3M melanoma) was 29.6 µM, the TGI (MOLT-4 leukemia) was > 100 µM and the TGI (NCI-H23 lung) was 44.1 µM. It also gave a TGI (NCI-H460 lung) of 28.7 µM, a TGI (NCI-H522 lung) of 31.6 µM and a TGI (OVCAR-3 ovarian) of 28 µM. The TGI (OVCAR-4 ovarian) was 37.1 µM, the TGI (OVCAR-5 ovarian) was 34.2 µM and the TGI (OVCAR-8 ovarian) was 31.3 µM. It also gave a TGI (RXF 393 renal) of 30.6 µM, a TGI (RXF-631 renal) of 28.7 µM and a TGI (SF-268 CNS) of 31.1 µM. For the same compound, the TGI (SF-295 CNS) was 28.5 µM, the TGI (SF-539 CNS) was 34.4 µM and the TGI (SK-MEL-2 melanoma) was 26.3 µM. For the same compound, the TGI (SK-MEL-28 melanoma) was 29.4 µM, the TGI (SK-MEL-5 melanoma) was 30.2 µM and the TGI (SK-OV-3 ovarian) was 66.4 µM. For the same compound, the TGI (SN12C renal) was 31 µM, the TGI (SNB-19 CNS) was 31.4 µM and the TGI (SNB-75 CNS) was 41.4 µM. For the same compound, the TGI (SNB-78 CNS) was 46.8 µM, the TGI (SR leukemia) was 44.6 µM and the TGI (SW-620 colon) was 30.8 µM. The TGI (TK-10 renal) was 76.7 µM, the TGI (U251 CNS) was 30.8 µM and the TGI (UACC-62 melanoma) was 34.1 µM. It also gave a TGI (UO-31 renal) of 29.8 µM and a TGI (XF 498 CNS) of 27.4 µM.
